From patent US20130224110A1, “USE OF ADENOSINE RECEPTOR SIGNALING TO MODULATE PERMEABILITY OF BLOOD-BRAIN BARRIER” (CORNELL UNIVERSITY, priority 2010, published 2013)

Experiments:
blood brain barrier [1] = assay: Fluorescently labeled dextran extravasation into rat brain (fluorimetry); format: in vivo; settings: rats
Procedure: (§1) The adenosine receptor agonists NECA, CCPA, CGS 21860, and SCH 58261 (Tocris, Ellisville, Mo.) were each dissolved in DMSO then diluted in PBS to the desired concentration; in most cases final DMSO concentrations were <0.5% (vol/vol). Lexiscan (Regadenoson; TRC, Inc., Toronto) was dissolved in PBS. For vehicle controls, DMSO was diluted in PBS to the same concentration. Dehydrated dextrans labeled with either FITC or Texas Red (Invitrogen, Carlsbad, Calif.) were re-suspended in PBS to 10 mg/ml. All experiments involving dextran injection used 1.0 mg dextran in PBS. In experiments where drug and dextran were injected concomitantly, 1.0 mg of dextran was mixed with the drug to the desired concentration in a final volume of 200 μl. In dose-response experiments, drugs and dextrans were injected concomitantly. All injections, except injections of SCH 58261, were retro-orbital i.v. with a 27-gauge needle. In the SCH 58261 experiment, SCH 58261 injections, 1 mg/kg, were intraperitoneal and mice were pre-dosed with this concentration daily for 4 days prior to the day of the experiment. An additional injection was administered at the time of the experiment. Vehicle/drug and dextrans were injected on day 5 and tissues were collected 3 h after vehicle/drug administration. In Lexiscan experiments, Lexiscan was administered i.v. with 3 injections, 5 min apart and tissues were collected at 15 min unless otherwise indicated.
Ice-cold 50 mMTris-Cl (pH 7.6) was added to frozen brains (100 μl per 100 mg brain) and were to thawed on ice. They were homogenized with a dounce homogenizer and centrifuged at […] in a microfuge for 30 min at room temperature (rt). The supernatants were transferred to new tubes and an equal volume absolute methanol was added. The samples were centrifuged again at 16.1×g for 30 min at rt. Supernatant (200 μl) was transferred to a Corning costar 96 well black polystyrene assay plate (clear bottom). […] FITC-dextran was detected at 488/519 (excitation/emission) and Texas Red-dextran was detected at 592/618.

Bend.3 cells [2] = assay: Albumin uptake assay; format: cell-based, mouse; settings: BECs, 1 μM, 30 minutes, vs media and vehicle
Procedure: Bend.3 cells grown on collagen coated coverslips were incubated with albumin-alexafluor 594 (50 mg/ml) (Invitrogen) and either media alone, DMSO vehicle, NECA (1 μM), or Lexiscan (1 μM) for 30 minutes. Albumin uptake was visualized (albumin=red) utilizing the Zeiss Axio Imager M1 fluorescent microscope. Total albumin fluorescence was recorded using Zeiss Axio Vision software, and measured utilizing Image-J software.

Bend.3 cells [3] = assay: Transendothelial cell electrical resistance (TEER) assay; format: cell-based; settings: mouse BEC monolayers, 1 μM, vs vehicle or media alone
Procedure: Bend.3 cells were grown in ATCC-formulated DMEM supplemented with 10% FBS on 24-well transwell inserts, 8 μm pore size (BD Falcon, Bedford, Mass.) until a monolayer was established. TEER was assessed using a Voltohmeter (EVOMX, World Precision Instruments, Sarasota, Fla.). Background resistance from un-seeded transwells was subtracted from recorded values to determine absolute TEER values. Change in absolute TEER from T0 for each individual transwell was expressed as percentage change and then averaged for each treatment group.

Bend.3 cells [4] = assay: F-actin (phalloidin) staining of endothelial cells; format: cell-based, mouse; settings: BECs, 1 μM, 3 or 30 min, vs vehicle
Procedure: Bend.3 cells were grown (as described above) on circular cover slips in 24-well plates. Cells were treated for 3 or 30 min with 1 μM CCPA, 1 μM […], DMSO or media alone. Cover slips were washed with PBS, fixed in 4% paraformaldahyde, washed again in PBS and then permeabilized with 0.5% TritonX-100 in PBS. After washing in PBS/1% BSA, cover slips were blocked with 1% BSA then stained with Phallodin-Alexa 568. Cover slips were washed and mounted on slides with ProlongGold containing DAPI (Invitrogen). Images were obtained on an Olympus BX51 fluorescent microscope.

Bend.3 cells [5] = assay: Tight junction molecule staining (ZO-1, Claudin-5, Occludin); format: cell-based, mouse; settings: 1 μM, 1 h
Procedure: Bend.3 cells grown on collagen coated coverslips were incubated with DMSO vehicle, NECA (1 μM), or Lexiscan (1 μM) for 1 h. Cells were washed with PBS, fixed with 4% paraformaldehyde, and permeabilized with 0.5% Triton-X in PBS. Cells were blocked with PBS/BSA/goat serum and then stained with antibodies (Invitrogen) against either ZO-1 (1A12), Claudin-5 (34-1600), or Occludin (3F10). Following a wash step, cells were incubated with either goat anti-rabbit IgTexas Red-X or goat anti-mouse IgCy5 (Invitrogen). Cover slips were washed and mounted on slides with ProlongGold containing DAPI. Images were obtained on a Zeiss Axio Imager M1 fluorescent microscope.

blood brain barrier [6] = assay: Fluorescently labeled dextran extravasation into mouse brain (fluorimetry); format: in vivo, mice
Procedure: as §1
In dose-response experiments and experiments with the A1 AR and A2A AR knock-out mice, drugs and dextrans were injected concomitantly. After 3 h, the mice were anesthetized with ketamine/xylazine and subjected to a nose cone containing isoflurane. They were perfused with 25-50 ml ice-cold PBS through the left ventricle of the heart then decapitated. Their brains were removed, weighed and frozen for later analysis.
Ice-cold 50 mMTris-Cl (pH 7.6) was added to frozen brains (100 μl per 100 mg brain) and were to thawed on ice. They were homogenized with a dounce homogenizer and centrifuged at […] in a microfuge for 30 min at room temperature (rt). The supernatants were transferred to new tubes and an equal volume absolute methanol was added. The samples were centrifuged again at […] for 30 min at rt. Supernatant (200 μl) was transferred to a Corning costar 96 well black polystyrene assay plate (clear bottom). Additionally, a series of standards containing 0.001-10 pg/ml dextran in 50% Tris-Cl/50% absolute methanol (vol/vol) was added to each plate. Absolute concentrations of dextrans were derived from these standard curves. Fluorimetric analysis was performed on a BioTek (Winooski, Vt.) Synergy 4. FITC-dextran was detected at 488/519 (excitation/emission) and Texas Red-dextran was detected at 592/618.

[7] = mice, single i.v. injection (0.05 mg/kg)

SMILES: CNC(=O)c1cnn(-c2nc(N)c3ncn([C@@H]4O[C@H](CO)[C@@H](O)[C@H]4O)c3n2)c1 [Lexiscan]
- labeled-dextran levels in brain (blood brain barrier [1]; 3 injections over 15 min): dramatically high levels of labeled-dextran
- increase in labeled-dextran, multiple doses compared to single injections (blood brain barrier [1]; 3 injections vs single injection): more than 20 fold
- BBB permeability (blood brain barrier [1]; i.v. administration): increased BBB permeability in rats
- rate of fluorescently-labeled albumin uptake (Bend.3 cells [2]): did not affect the rate of fluorescently-labeled albumin uptake
- TEER (Bend.3 cells [3]): decreases in TEER
- actinomyosin stress fiber formation (Bend.3 cells [4]): marked induction of actinomycin stress fibers
- ZO-1 and claudin-5 expression (Bend.3 cells [5]): discreet alterations in ZO-1 and claudin-5
- occludin expression (Bend.3 cells [5]): severely diminished occludin expression
- magnitude of increased BBB permeability compared with NECA (blood brain barrier [6]; i.v. administration): much greater than the magnitude of increased permeability after NECA administration
- BBB permeability to 10,000 Da dextrans (blood brain barrier [6]; mice, i.v. administration): increase BBB permeability to 10,000 Da dextrans
- time by which BBB permeability returned to baseline (blood brain barrier [6]; [7]): ≤ 180 min
- time of maximum increased BBB permeability (blood brain barrier [6]; [7]): 30 min
- time after which FITC-dextran was detectable in the brain (blood brain barrier [6]; mice, single injection): 5 min
